Reference: patent publication US20100119494A1, “METHODS AND COMPOSITIONS RELATED TO MODULATING THE EXTRACELLULAR STEM CELL ENVIRONMENT” (Massachusetts Institute of Technology, priority 2005, published 2010)

B1: Hep-I: HSGAG-degrading enzyme; cleaves HSGAGs at highly sulfated regions; gift of Momenta Pharmaceuticals (protein, UniProt Q05819 22-384, looked up)
Heparin lyase I: QQKKSGNIPYRVNVQADSAKQKAIIDNKWVAVGINKPYALQYDDKLRFNGKPSYRFELKAEDNSLEGYAAGETKGRTELSYSYATTNDFKKFPPSVYQNAQKLKTVYHYGKGICEQGSSRSYTFSVYIPSSFPDNATTIFAQWHGAPSRTLVATPEGEIKTLSIEEFLALYDRMIFKKNIAHDKVEKKDKDGKITYVAGKPNGWKVEQGGYPTLAFGFSKGYFYIKANSDRQWLTDKADRNNANPENSEVMKPYSSEYKTSTIAYKMPFAQFPKDCWITFDVAIDWTKYGKEANTILKPGKLDVMMTYTKNKKPQKAHIVNQQEILIGRNDDDGYYFKFGIYRVGNSTVPVTYNLSGYSETAR
B2: Hep-III: HSGAG-degrading enzyme; cleaves HSGAGs at undersulfated regions (protein, UniProt Q59289 25-659, looked up)
Heparin-sulfate lyase: QSSSITRKDFDHINLEYSGLEKVNKAVAAGNYDDAAKALLAYYREKSKAREPDFSNAEKPADIRQPIDKVTREMADKALVHQFQPHKGYGYFDYGKDINWQMWPVKDNEVRWQLHRVKWWQAMALVYHATGDEKYAREWVYQYSDWARKNPLGLSQDNDKFVWRPLEVSDRVQSLPPTFSLFVNSPAFTPAFLMEFLNSYHQQADYLSTHYAEQGNHRLFEAQRNLFAGVSFPEFKDSPRWRQTGISVLNTEIKKQVYADGMQFELSPIYHVAAIDIFLKAYGSAKRVNLEKEFPQSYVQTVENMIMALISISLPDYNTPMFGDSWITDKNFRMAQFASWARVFPANQAIKYFATDGKQGKAPNFLSKALSNAGFYTFRSGWDKNATVMVLKASPPGEFHAQPDNGTFELFIKGRNFTPDAGVFVYSGDEAIMKLRNWYRQTRIHSTLTLDNQNMVITKARQNKWETGNNLDVLTYTNPSYPNLDHQRSVLFINKKYFLVIDRAIGEATGNLGVHWQLKEDSNPVFDKTKNRVYTTYRDGNNLMIQSLNADRTSLNEEEGKVSYVYNKELKRPAFVFEKPKKNAGTQNFVSIVYPYDGQKAPEISIRENKGNDFEKGKLNLTLTINGKQQLVLVP

Assays:
Type in all cases: cell-based, mouse
[1] = test system: differentiating ES cells (J1); assay: Flow cytometry of vWF in differentiating ES cells after enzymatic or pharmacological modification of HSGAGs; conditions: FIG. 12B, Hep-I 1.5 μg/mL or Hep-III 2.5 μg/mL 30 minutes every day, sodium chlorate 10 mM in medium
Method: (§1) Mouse embryonic stem cells (J1) (gift from Bevin Engelward, Mass. Institute of Technology, Cambridge, Mass.) were grown in DMEM with 2 mM L-glutamine (GIBCO, Carlsbad, Calif.) adjusted to contain […] sodium pyruvate, 10 mM nonessential amino acids and 1.5 g/L sodium bicarbonate, with 15% fetal bovine serum (Hyclone, South Logan, Utah) and supplemented with 100 units/mL penicillin G (Sigma, St. Louis, Mo.), 100 μg/mL streptomycin sulfate (Sigma), 30 mM beta-mercaptoethanol (Sigma) and 1000 units/ml murine leukemia inhibitory factor, LIF (Chemicon, Temecula, Calif.). The cells were plated in 10 cm^2 cell culture dishes, coated with 0.1% gelatin B (Sigma) and grown at 37° C. in a 5% CO2 humidifier incubator. The culture medium was changed every 2 days. The cells were subcultured at a split ratio of 1:10 when they reached 80% to 90% confluency, using a 0.25% trypsin-EDTA solution (Sigma). To induce formation of embryoid bodies and differentiation into endothelial cells, J1 cells were plated at a density of 1.25×10^5 cells/100 mm dish, or 3×10^4 cells/6 wells and cultured in the absence of LIF. Fresh media was replenished every 2 days.
Heparinase III (Hep-III) was prepared as described previously (Godavarti, R., et al. (1996) Biochemistry 35, 6846-52). […] Treated cells were analyzed for differentiation into endothelial cells between day 3 and day 15. […]
Cells were harvested at various time points during differentiation, incubated with rat monoclonal antibody against CD16/CD32 (1:50 dilution, Pharmingen, San Diego, Calif.) to block Fey receptors and incubated further with a primary antibody against von Willebrand factor (vWF) (Dako (Carpinteria, Calif.), rabbit polyclonal, added at a 1:100 dilution). […] Cells were then washed twice and were incubated with FITC-conjugated secondary antibody (Jackson ImmunoResearch, West Grove, Pa.) in a 1:100 dilution, washed twice and taken up in OptiMEM (GIBCO/BRL, Carlsbad, Calif.) and analyzed on a Becton Dickinson (Franklin Lakes, N.J.) FACScan flow cytometer (excitation 488 nm, argon laser; emission 580/30). […]

[2] = test system: differentiating ES cells (J1); assay: Confocal microscopy of vWF and Oct-4 staining in differentiating ES cells; conditions: for vWF expression (confocal microscopy): FIG. 15A, treated differentiating ES cells; for Oct-4 levels of differentiating cells (confocal microscopy): FIG. 15B
Method: as §1
(§2) Heparinase III (Hep-III) was prepared as described previously (Godavarti, R., et al. (1996) Biochemistry 35, 6846-52). Heparinase I (Hep-I) was a generous gift of Momenta Pharmaceuticals (Cambridge, Mass.). Sodium chlorate and heparin were purchased from Sigma and Cambrex BioWhittaker (East Rutherford, N.J.), respectively. To enzymatically modify the HSGAG glycome signature of the cells, cells were washed with phosphate buffer saline (PBS) and incubated with Hep-I or Hep-III for 30 minutes every day at 37° C. in serum free DMEM. Digested HSGAG residues were removed by washing the cells, and cells were then fed with fresh media. In an additional experiment, cells were cultured with medium containing sodium chlorate, which blocks the sulfation of HSGAGs. In a reversal experiment, heparin was added to the culture to overcome the chlorate induced synthetic block. Treated cells were analyzed for differentiation into endothelial cells between day 3 and day 15. Hep-III was added to the cells at a concentration of 2.5 μg/mL, Hep-I was added at a concentration of 1.5 μg/mL, sodium chlorate at 10 mM and heparin (20 μg). The concentrations of enzymes were optimized to exhaustively cleave all cell surface HSGAGs in the given period of time. All enzymes and chemicals were diluted in serum free DMEM.
For microscopic analysis of endothelial cells, the differentiating J1 cells were fixed in cold methanol at designated time points, blocked in goat serum and probed overnight with a rabbit primary antibody against vWF, an endothelial cell marker, or Oct-4, a stem cell marker. The sections were washed and re-probed with a goat secondary antibody coupled to FITC. The nuclei were counterstained with propidium iodide. Images were captured using a […] LSM510 confocal microscope at a 512×512 pixels resolution (Leica, Bannockburn, Ill.). Fluorochromes were excited with 488 nm and 543 nm laser lines, and the images were captured using 505-530 BP and 565-615 BP filters at a 512×512 pixels resolution.
To dissect the role of HSGAG structure in ES cell differentiation, the cell surface and extracellular HSGAG moieties of differentiating ES cells were modified using an enzymatic and pharmacological approach. Specifically, differentiating ES cells were incubated with Hep-I or Hep-III for 30 minutes every day to cleave the cell surface and extracellular matrix (ECM) HSGAGs at structurally distinct sites, or cultured in media supplemented with sodium chlorate, which is a pharmacological inhibitor of HSGAG biosynthesis (Safaiyan, F., et al. (1999) J Biol Chem 274, 36267-73). Hep-I cleaves HSGAGs at highly sulfated regions, and Hep-III cleaves HSGAGs at undersulfated regions (Linhardt, R. J., et al. (1990) Biochemistry 29, 2611-7; Godavarti, R., and Sasisekharan, R. (1996) Biochem Biophys Res Commun 229, 770-7). […]

[3] = test system: differentiating ES cells (J1); assay: Real-time PCR of Oct-4, VEGF-R2, VE-cadherin and eNOS transcripts in differentiating ES cells; conditions: for Oct-4 transcript levels / VE-cadherin transcript levels / eNOS transcript levels: real-time PCR, FIG. 19
Method: as §1, §2
RNA was isolated from J1 cells using TRIzol (Invitrogen, Carlsbad, Calif.) and RNAlater (Qiagen, Valencia, Calif.) according to the manufacturer's protocol. Single-stranded cDNA was generated via oligo-dT primed reverse transcription, and genes serving as markers for differentiation were quantified using an Abi Prism 7700 real-time PCR thermocycler (Applied Biosystems, Foster City, Calif.). Expression levels were obtained for the marker genes Oct-4, VE-cadherin, VEGF-R2, and eNOS, with β-actin used as a control. PCR conditions involved denaturation for 10 min at 95° C., followed by 40 cycles of denaturation for 20 sec at 94° C., and annealing and extension for 1 min at 60° C. cDNA isolated from J1 cells and primers for the described genes were mixed with SYBR Green PCR Mastermix (Applied Biosystems) for real-time quantification according to the manufacturers instructions. Primers used were 5′-[…]-3′ (SEQ ID NO: 1) and 5′-[…]-3′ (SEQ ID NO: 2) for Oct-4; 5′-[…]-3′ (SEQ ID NO: 3) and 5′-[…]-3′ (SEQ ID NO: 4) for VE-cadherin; 5′-[…]-3′ (SEQ ID NO: 5) and 5′-[…]-3′ (SEQ ID NO: 6) for TIE-2; 5′-[…]-3′ (SEQ ID NO: 7) and 5′-[…]-3′ (SEQ ID NO: 8) for VEGF-R2; 5′-[…]-3′ (SEQ ID NO: 9) and 5% […]-3′ (SEQ ID NO: 10) for ENOS; 5′-[…]-'3 (SEQ ID NO: 11) and 5′-[…]-'3 (SEQ ID NO: 12) for 13-actin. The sulfotransferase primers and conditions were chosen. […]

[4] = test system: phosphorylation of ERK1/2 (MAPK pathway); assay: Western blot of phospho-ERK normalized to total ERK1/2 in differentiating ES cells; conditions: for phosphorylation of ERK1/2: Western blot, FIGS. 14 and 18
Method: as §2
For elucidating the biochemical pathways involved downstream of the modulation of the cell surface sugars, protein contents of the embryoid bodies were solubilized by rapid mixing with 3× SDS sample buffer under reducing conditions. Equivalent amounts of protein per sample were electrophoretically resolved on 4-12% gradient polyacrylamide gels and transferred onto a nitrocellulose (0.22 μm) membrane. The membrane was subsequently probed with a phosphor-ERK antibody (1:800 dilution, Cell Signaling Technologies, Danvers, Mass.), which specifically detects the phosphorylated forms of ERK1 and 2. The signal was amplified using a 1:2000 dilution of the appropriate horseradish peroxidase-conjugated secondary antibody (BioRad, Hercules, Calif.), and the immunocomplexes were visualized using enhanced chemiluminescence detection (Amersham Life Science, Piscataway, N.J.). The signal was normalized to the expression of total ERK1/2, which was detected on the same blot using ERK1/2 specific antibodies (Santa Cruz, Santa Cruz, Calif., used at a 1:200 dilution). Quantification of the luminescence signal was carried out by a Kodak 2000R imager.
The MAPK pathway is the downstream convergence point of the signaling of several angiogenic factors such as VEGF, FGF, HGF, EGF, PDGF and angiopoietins (Sengupta, S., et al. (2003) Arterioscler Thromb Vasc Biol 23, 69-75). […]

ES cells = assay: Optimization of culture conditions for differentiation of ES cells into endothelial cells (marker expression); conditions: 15% FBS present, LIF absent
Method: Mouse embryonic stem cells (J1) (gift from Bevin Engelward, Mass. Institute of Technology, Cambridge, Mass.) were grown in DMEM with 2 mM L-glutamine (GIBCO, Carlsbad, Calif.) adjusted to contain 100 mM sodium pyruvate, 10 mM nonessential amino acids and 1.5 g/L sodium bicarbonate, with 15% fetal bovine serum (Hyclone, South Logan, Utah) and supplemented with 100 units/mL penicillin G (Sigma, St. Louis, Mo.), 100 μg/mL streptomycin sulfate (Sigma), 30 mM beta-mercaptoethanol (Sigma) and 1000 units/ml murine leukemia inhibitory factor, LIF (Chemicon, Temecula, Calif.). The cells were plated in 10 cm^2 cell culture dishes, coated with 0.1% gelatin B (Sigma) and grown at 37° C. in a 5% CO2 humidifier incubator. The culture medium was changed every 2 days. The cells were subcultured at a split ratio of 1:10 when they reached 80% to 90% confluency, using a 0.25% trypsin-EDTA solution (Sigma). To induce formation of embryoid bodies and differentiation into endothelial cells, J1 cells were plated at a density of 1.25×10^5 cells/100 mm dish, or 3×10^4 cells/6 wells and cultured in the absence of LIF. Fresh media was replenished every 2 days.
To optimize the conditions for efficient differentiation of ES cells into endothelial cells in vitro, the expression levels of ES cell specific and endothelial cell specific markers were analyzed at different stages of differentiation under different cell culture conditions. Specifically, the effects of cell density, the ECM content (i.e., gelatin, collagen, laminin, matrigel), exogenous addition of growth factors (i.e., VEGF, FGF, HGF and insulin) and different types of serum (i.e., Sigma fetal bovine serum (FBS) and Hyclone FBS) were tested.

[5] = heparin added to sodium chlorate treated ES cells

| Molecule | decrease of the proportion of cells expressing detectable levels of vWF [1] | vWF expression (confocal microscopy) [2] | Oct-4 levels of differentiating cells (confocal microscopy) [2] | Oct-4 transcript levels [3] | VE-cadherin transcript levels [3] | eNOS transcript levels [3] | phosphorylation of ERK1/2 [4] | effect of exogenous addition of growth factors on differentiation into endothelial cells (ES cells) | also measured |
| --- | --- | --- | --- | --- | --- | --- | --- | --- | --- |
| [O-][Cl+2]([O-])O [sodium chlorate, reference compound] | approximately 5 fold | inhibitory effects | none of the treatments had significant effects | no effect | significantly decreased | significantly decreased | inhibits |  |  |
| HGF: growth factor added exogenously to the culture |  |  |  |  |  |  |  | No effects |  |
| VEGF |  |  |  |  |  |  |  | No effects |  |
| heparin [reference compound] |  |  |  |  |  |  |  |  | vWF staining (confocal microscopy), reconstitution ([2]; heparin added to sodium chlorate treated ES cells during differentiation, FIG. 15C): increased vWF staining; VE-cadherin transcript levels, reconstitution [3, 5]: increased; eNOS transcript levels, reconstitution [3, 5]: increased; phosphorylation of ERK1/2, reversal of inhibition ([4]; exogenous heparin added to treated cells): inhibition is reversed |
| insulin: listed among growth factors added exogenously to the culture |  |  |  |  |  |  |  | No effects |  |
| B1 | approximately 5 fold | inhibitory effects | none of the treatments had significant effects | no effect | significantly decreased | significantly decreased | inhibits |  |  |
| B2 | ~3 fold | inhibitory effects | none of the treatments had significant effects | no effect | decreased | decreased | inhibits |  |  |
